Source: ChEMBL document CHEMBL1201862, “PubChem BioAssay data set” (2004)
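All cell lines were grown in 96-well plates and treated with compound for 48 hours. GI50 marks 50% less growth.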 The source made the active and inactive calls. Rule as the data show it: active = GI50 up to about 1.1 µM and inactive = higher.

Experiments:
Assay in all cases: growth of human tumour cells (NCI), 48 h
A498 = tested on: A498
A549 = tested on: A549
ACHN = tested on: ACHN
HOP-62 = tested on: HOP-62
KM12 = tested on: KM12
MDA-MB-435 = tested on: MDA-MB-435
Malme-3M = tested on: Malme-3M
NCI-H522 = tested on: NCI-H522
OVCAR-3 = tested on: OVCAR-3
OVCAR-5 = tested on: OVCAR-5
OVCAR-8 = tested on: OVCAR-8
RPMI-8226 = tested on: RPMI-8226
SF-268 = tested on: SF-268
SK-MEL-2 = tested on: SK-MEL-2
SK-OV-3 = tested on: SK-OV-3
SN12C = tested on: SN12C
SR = tested on: SR
T47D = tested on: T47D
IGROV-1 = tested on: IGROV-1
HL-60 = tested on: HL-60

In the case of c1ccc(Nc2nn3c(CCCCCCCCc4nnc5sc(Nc6ccccc6)nn45)nnc3s2)cc1, the GI50 (A498) is reported as 36.2 µM (inactive), the GI50 (A549) is reported as 21.6 µM (inactive) and the GI50 (ACHN) is reported as 35.8 µM (inactive). The GI50 (HOP-62) was 38.5 µM (inactive), the GI50 (KM12) was 32.2 µM (inactive) and the GI50 (MDA-MB-435) was 25.4 µM (inactive). The GI50 (Malme-3M) was 37.1 µM (inactive), the GI50 (NCI-H522) was 20.2 µM (inactive) and the GI50 (OVCAR-3) was 23.6 µM (inactive). For the same molecule, the GI50 (OVCAR-5) was 36.9 µM (inactive), the GI50 (OVCAR-8) was 22 µM (inactive) and the GI50 (RPMI-8226) was 22.3 µM (inactive). The GI50 (SF-268) was 43 µM (inactive), the GI50 (SK-MEL-2) was 29.4 µM (inactive) and the GI50 (SK-OV-3) was 32.1 µM (inactive). The GI50 (SN12C) was 49.1 µM (inactive), the GI50 (SR) was 13.3 µM (inactive) and the GI50 (T47D) was 13.2 µM (inactive).

In the case of O=C1c2ccccc2C(=O)N1CCc1ncc[nH]1, the GI50 (A549) is reported as > 100 µM (inactive), the GI50 (ACHN) is reported as > 100 µM (inactive) and the GI50 (IGROV-1) is reported as > 100 µM (inactive). The GI50 (KM12) was > 100 µM (inactive), the GI50 (MDA-MB-435) was > 100 µM (inactive) and the GI50 (NCI-H522) was > 100 µM (inactive). For the same molecule, the GI50 (OVCAR-3) was > 100 µM (inactive), the GI50 (OVCAR-5) was > 100 µM (inactive) and the GI50 (OVCAR-8) was > 100 µM (inactive). The GI50 (RPMI-8226) was > 100 µM (inactive), the GI50 (SF-268) was > 100 µM (inactive) and the GI50 (SK-MEL-2) was > 100 µM (inactive). For the same molecule, the GI50 (SN12C) was > 100 µM (inactive), the GI50 (SR) was > 100 µM (inactive) and the GI50 (T47D) was > 100 µM (inactive).

With CC(=O)NC(CS/N=N/c1[nH]cnc1C(N)=O)C(=O)O (stereo not given) the GI50 (A549) was > 100 µM (inactive), the GI50 (ACHN) was 6.27 µM (inactive) and the GI50 (HL-60) was 1.16 µM (inactive). The GI50 (HOP-62) was 35.9 µM (inactive), the GI50 (IGROV-1) was 5.81 µM (inactive) and the GI50 (KM12) was 6.71 µM (inactive). The GI50 (MDA-MB-435) was 10.4 µM (inactive), the GI50 (Malme-3M) was 2.16 µM (inactive) and the GI50 (NCI-H522) was 14.9 µM (inactive). The GI50 (OVCAR-3) was 10 µM (inactive), the GI50 (OVCAR-5) was > 76.2 µM (inactive) and the GI50 (OVCAR-8) was 2.06 µM (inactive). The GI50 (RPMI-8226) was 1.46 µM (inactive), the GI50 (SF-268) was 4.29 µM (inactive) and the GI50 (SK-MEL-2) was 2.42 µM (inactive). The GI50 (SK-OV-3) was 2.15 µM (inactive), the GI50 (SN12C) was 3.21 µM (inactive) and the GI50 (SR) was < 0.01 µM (active). The GI50 (T47D) was > 24.1 µM (inactive).

In the case of c1ccc2c(c1)c(N1CCCCC1)cc1nc3c(cc(N4CCCCC4)c4ccccc43)nc12, the GI50 (A498) is reported as > 100 µM (inactive), the GI50 (A549) is reported as > 100 µM (inactive) and the GI50 (ACHN) is reported as > 100 µM (inactive). The GI50 (HL-60) was > 100 µM (inactive), the GI50 (HOP-62) was > 100 µM (inactive) and the GI50 (IGROV-1) was > 100 µM (inactive). The GI50 (KM12) was > 100 µM (inactive), the GI50 (MDA-MB-435) was > 100 µM (inactive) and the GI50 (Malme-3M) was > 100 µM (inactive). For the same molecule, the GI50 (NCI-H522) was > 100 µM (inactive), the GI50 (OVCAR-3) was > 100 µM (inactive) and the GI50 (OVCAR-5) was > 100 µM (inactive). For the same molecule, the GI50 (OVCAR-8) was > 100 µM (inactive), the GI50 (RPMI-8226) was > 100 µM (inactive) and the GI50 (SK-MEL-2) was > 100 µM (inactive). The GI50 (SK-OV-3) was > 100 µM (inactive), the GI50 (SN12C) was > 100 µM (inactive) and the GI50 (SR) was > 100 µM (inactive).

For C/C=C(/C)C(=O)O[C@@H]1CCN2CC[C@H](COC(=O)/C(=C/C)CO)C12 (stereo not given in full), the GI50 (A549) was > 100 µM (inactive), the GI50 (ACHN) was > 100 µM (inactive) and the GI50 (HL-60) was > 59.8 µM (inactive). The GI50 (HOP-62) was > 100 µM (inactive), the GI50 (IGROV-1) was > 100 µM (inactive) and the GI50 (KM12) was > 100 µM (inactive). The GI50 (MDA-MB-435) was 63.1 µM (inactive), the GI50 (Malme-3M) was 32 µM (inactive) and the GI50 (NCI-H522) was 49.4 µM (inactive). The GI50 (OVCAR-3) was > 100 µM (inactive), the GI50 (OVCAR-5) was > 100 µM (inactive) and the GI50 (OVCAR-8) was > 100 µM (inactive). The GI50 (RPMI-8226) was 33.5 µM (inactive), the GI50 (SF-268) was > 100 µM (inactive) and the GI50 (SK-MEL-2) was 41.4 µM (inactive). For the same molecule, the GI50 (SK-OV-3) was > 100 µM (inactive), the GI50 (SN12C) was > 100 µM (inactive) and the GI50 (SR) was 39.5 µM (inactive). The GI50 (T47D) was > 100 µM (inactive).

With CC(=O)O[C@@H]1CC2[C@@H](CCC3Cc4nc5c(nc4C[C@@]32C)CC2CC[C@@H]3C(CC[C@@]4(C)C3CC[C@@H]4C(C)CCCC(C)C)[C@@]2(C)C5)C2C[C@@H]3OC4(CCC(C)CO4)C(C)[C@@H]3[C@]21C (stereo not given in full) the GI50 (A549) was > 100 µM (inactive), the GI50 (ACHN) was 55.7 µM (inactive) and the GI50 (HL-60) was > 100 µM (inactive). For the same molecule, the GI50 (HOP-62) was 22.8 µM (inactive), the GI50 (IGROV-1) was > 100 µM (inactive) and the GI50 (KM12) was > 100 µM (inactive). The GI50 (MDA-MB-435) was > 100 µM (inactive), the GI50 (Malme-3M) was > 100 µM (inactive) and the GI50 (NCI-H522) was > 100 µM (inactive). For the same molecule, the GI50 (OVCAR-3) was > 100 µM (inactive), the GI50 (OVCAR-5) was > 100 µM (inactive) and the GI50 (OVCAR-8) was > 100 µM (inactive). The GI50 (RPMI-8226) was > 100 µM (inactive), the GI50 (SF-268) was 39.3 µM (inactive) and the GI50 (SK-OV-3) was 3.04 µM (inactive). The GI50 (SN12C) was > 100 µM (inactive), the GI50 (SR) was > 100 µM (inactive) and the GI50 (T47D) was > 100 µM (inactive).

With C#C[C@]1(O)[C@@H](CO)O[C@@H](n2ccc(N)nc2=O)[C@@H]1O the GI50 (A549) was < 0.01 µM (active), the GI50 (ACHN) was < 0.01 µM (active) and the GI50 (HL-60) was < 0.0147 µM (active). For the same molecule, the GI50 (IGROV-1) was 0.028 µM (active), the GI50 (KM12) was < 0.0127 µM (active) and the GI50 (MDA-MB-435) was < 0.01 µM (active). For the same molecule, the GI50 (Malme-3M) was 0.0337 µM (active), the GI50 (NCI-H522) was < 0.01 µM (active) and the GI50 (OVCAR-3) was 0.132 µM (active). For the same molecule, the GI50 (OVCAR-5) was 0.209 µM (active), the GI50 (OVCAR-8) was < 0.0121 µM (active) and the GI50 (RPMI-8226) was < 0.01 µM (active). For the same molecule, the GI50 (SF-268) was 0.019 µM (active), the GI50 (SK-MEL-2) was 0.0435 µM (active) and the GI50 (SK-OV-3) was 0.0791 µM (active). For the same molecule, the GI50 (SN12C) was < 0.01 µM (active), the GI50 (SR) was < 0.01 µM (active) and the GI50 (T47D) was < 0.015 µM (active).
